Results from PubChem BioAssay (NCI).
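Compound exposure: 48 hours, 5 concentrations, 96-well plates. TGI: concentration producing complete growth inhibition.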

Columns and labels:
Test in all cases: inhibition of tumour cell growth, NCI panel, 48 h
U251 CNS = test system: U251 CNS
HCT-116 colon = test system: HCT-116 colon
UACC-62 melanoma = test system: UACC-62 melanoma
MOLT-4 leukemia = test system: MOLT-4 leukemia
SNB-75 CNS = test system: SNB-75 CNS
HOP-62 NSCLC = test system: HOP-62 NSCLC
HT29 colon = test system: HT29 colon
HOP-92 NSCLC = test system: HOP-92 NSCLC
NCI/ADR-RES ovarian = test system: NCI/ADR-RES ovarian
T-47D breast = test system: T-47D breast
CCRF-CEM leukemia = test system: CCRF-CEM leukemia
MCF7 breast = test system: MCF7 breast

Compound | TGI (U251 CNS) [µM] | TGI (HCT-116 colon) [µM] | TGI (UACC-62 melanoma) [µM] | TGI (MOLT-4 leukemia) [µM] | TGI (SNB-75 CNS) [µM] | TGI (HOP-62 NSCLC) [µM] | TGI (HT29 colon) [µM] | TGI (HOP-92 NSCLC) [µM] | TGI (NCI/ADR-RES ovarian) [µM] | TGI (T-47D breast) [µM] | TGI (CCRF-CEM leukemia) [µM] | TGI (MCF7 breast) [µM]
O=C(N/N=C/c1cc(Br)cc(Br)c1[O-])c1ccccc1O.O=C(N/N=C/c1cc(Br)cc(Br)c1[O-])c1ccccc1O.[Zn+2] | 2.01 | 13 | 2.34 | > 100 | 18.8 | 4.5 | 12.3 | 5.09 |  |  |  | 
CCCSc1ccc2[nH]c(N3C(=O)/C(=C/c4ccc(SC)cc4)N=C3c3ccccc3)cc2c1 | > 50 | > 50 | > 50 |  | > 50 | > 50 | > 50 | > 50 | > 50 | > 50 | > 45.8 | > 50
N[C@@H]1CCN(c2c(F)cc3c(=O)c(C(=O)O)cn4c3c2Oc2cc3c(ccc5ccccc53)cc2-4)C1 | 5.04 | 18.5 | 26.7 |  | > 100 | > 100 | > 100 | 7.56 | > 100 | 31.3 | 0.234 | > 100
CC(C)C1NC(=O)CC(c2ccccc2)N(N=O)C1c1ccccc1 (stereo not given) | > 100 | > 100 | > 100 | > 100 | > 100 | > 100 | > 100 | > 100 | > 100 |  | > 100 | > 100
O=C(NNC(=S)NC1CCCCC1)C12CC3CC(CC(C3)C1)C2 | > 100 | > 100 | > 100 | > 100 | > 100 | > 100 | > 100 |  | > 100 | > 100 | > 100 | > 100
CC(=O)O[C@H]1C(=O)[C@@]2(C)[C@H]([C@H](OC(=O)c3ccccc3)[C@]3(O)C[C@H](OC(=O)[C@H](O)[C@@H](NC(=O)c4ccco4)c4ccccc4)C(C)=C1C3(C)C)[C@]1(OC(C)=O)CO[C@@H]1C[C@@H]2O | > 12.5 | > 12.5 | > 12.5 | > 12.5 |  | > 12.5 | > 12.5 |  | > 7.75 | > 12.5 | 0.0073 | > 12.5
C=C(C(=O)OC)[C@@H]1C[C@@H](OC(C)=O)C2=C[C@H](C[C@@]3(C)O[C@@H]3C3=CC(C)=C(O3)[C@H]1OC(C)=O)OC2=O | 71.1 | 24.3 | 40.9 | 6.72 | > 100 | 67.2 | 76.9 |  | > 100 | 33.8 |  | 35.3
CCOC(=O)/C(=N/Nc1ccccc1)N1C(=S)C=C(C)NN(C)C1=S | 50.9 | > 100 | > 100 | > 100 |  |  | > 100 | > 100 | > 100 | > 100 | > 100 | > 100
CN(CCCNC(=O)c1cn(C)c2c1Cc1ccccc1-2)CCCNC(=O)c1cn(C)c2c1Cc1ccccc1-2 | 20.2 | 22.2 | 27.6 | 16.4 |  | 29.2 | 5.7 | 7.89 | 28 |  | 17.2 | 25.4
Cn1cc2ccccc2c1-c1nc(F)nc(Oc2ccc3c(c2)CC[C@@H]2C3CC[C@@]3(C)C2C[C@H](O)[C@@H]3O)n1 (stereo not given in full) | 23.5 | 28.1 | 40.6 | 26.1 | 41.1 | 18.7 | 40.5 | 55.5 |  |  | 6.43 | 
CCOC(=O)c1nc2cc(C(F)(F)F)ccc2nc1Nc1ccc(C(=O)OC)s1 | > 100 | > 100 | 66.8 | > 100 | > 100 | > 100 | > 100 | 54 | > 100 | > 100 | > 100 | 
COc1ccc(-c2c3c(n(C4OC(CO)C(O)C(O)C4O)c(=S)c2C#N)CCCC3)cc1 (stereo not given) |  | > 100 | > 100 | > 100 | 18.7 | > 100 | > 100 |  | > 100 | > 100 | > 100 | > 100
CCCCCCCCCOCC(COP(=O)([O-])OCC[N+](C)(C)C)OC (stereo not given) | > 100 | > 100 | > 100 | > 100 | > 100 | > 100 | > 100 | > 100 | > 100 |  | > 100 | > 100
O=C(c1ccc(Cl)cc1)c1ccc(OCCCOc2ccc(C(=O)c3ccc(Cl)cc3)cc2Cl)c(Cl)c1 | > 100 | > 100 | > 100 | > 100 | > 100 | > 100 | > 100 | > 100 |  |  | > 100 | 
CC(=O)OCC(=O)OC[C@H](OCc1ccccc1)[C@@H]1[C@H](OC(C)=O)C(=O)N1Cc1ccccc1 | > 100 | > 100 | > 100 | > 100 | > 100 | > 100 | > 100 | > 100 | > 100 |  | > 100 | > 100
O=C1NN(Cc2ccccc2)C(=O)N2CCC[C@@H]12 |  | > 100 | > 100 | > 100 |  | > 100 | > 100 | > 100 | > 100 | > 100 | > 100 | > 100
CC1CCC2CC(=O)OC([C@@H]3C(=O)O[C@@H](C4=CCCC4)C4C(C)CCC43)C12 (stereo not given in full) | > 100 | > 100 | > 100 | > 100 | > 100 | > 100 | > 100 |  |  |  | > 100 | 
COc1ccc2c(c1)/C(=C\c1c(Cl)[nH]c3ccccc13)C(=O)N2 | 13.2 | 10.8 | 20 | 41 |  | 17.9 | 5.2 | 12.5 | 8.03 | > 100 | 13.4 | 13.7
COC(=O)c1cc(NC(=O)Cc2c[nH]c3ccccc23)cn1C | > 100 | > 100 | > 100 | > 100 |  | > 100 | > 100 |  | > 100 | > 100 | > 100 | > 100
CCOC(=O)CC(NC(=O)c1[nH]cnc1/N=N/N(C)C)C(=O)OCC (stereo not given) | > 100 | > 100 | > 100 | > 100 | > 100 | > 100 | > 100 |  |  |  | > 100 | 
